Reference: article PMC9440176, “Novel benzylidene benzofuranone analogues as potential anticancer agents: design, synthesis and in vitro evaluation based on CDK2 inhibition assays” (3 Biotech, 2022)

Experiments:
[1] = ABTS.+ radical scavenging assay
Protocol: The assay was performed in a 96-well plate by serial dilution method. A 2 mM ABTS^.+ working solution was prepared in a phosphate buffer (Zheleva-Dimitrova et al [2010]).To this, 200 μL of aqueous potassium per sulfate (70 mM) solution was added and the solution was incubated for 24 h in the dark at room temperature to develop a blue-green color. To 30 μL of ABTS^.+ working solution, 50 μL of different concentrations (3.9–1000 μM) of the test sample solution and 170 μL of phosphate buffer (pH-7.4) were added in a well. The plate was then incubated in the dark at room temperature for 10 min. Then absorbance was measured at 690 nm using Elisa reader. Quercetin and ascorbic acid were used as standards. The percentage scavenging of ABTS^.+ was calculated using the formula, (Control Absorbance–Test Absorbance)*100/(Control Absorbance) and the anti-oxidant activity was expressed in terms of IC50 value.

[2] = DPPH. free radical scavenging assay
Protocol: DPPH. assay was performed using 96-well plate by serial dilution method. The dilution of methanolic stock solution of the test compounds and standard anti-oxidants was carried out to obtain concentration in the range of 3.9–1000 µM. Quercetin and ascorbic acid were used as standards. To a 100 μL of this solution, 100 μL of 200 µM DPPH^. in methanolic solution was added. The experiment was done in triplicate and the plate was then incubated for 30 min in the dark and later the absorbance was measured at 517 nm using Elisa reader. The percentage DPPH^. Scavenging was calculated using the formula, (Control Absorbance–Test Absorbance)*100/(Control Absorbance). The anti-oxidant activity of the test compounds was expressed in terms of concentration required for 50 percentage inhibition (IC50) (Collins [2005]).

[3] = molecular target: CDK2/Cyclin A (Homo sapiens, UniProt P24941); experiment: CDK2/cyclin A inhibitory assay, Z'-LYTE FRET kinase assay; format: biochemical; conditions: concentration of 100 micro molar; 1000 ng/ml kinase, 1000 µM ATP
From the text: Z’-LYTE® technology involves homogeneous assay design based on FRET and is a universal platform for both screening as well as profiling protein kinases. The assay uses a peptide substrate labeled with two different fluorophores, coumarin donor and fluorescein acceptor on each end. These two fluorophores make up a FRET pair, which allows the transfer of energy when both are present on the same molecule. The initial kinase reaction transfers the ϒ-phosphate of ATP to a tyrosine or serine/threonine residue on the substrate. In a secondary reaction, referred to as the development reaction, a site-specific protease recognizes and cleaves only non-phosphorylated peptide, while phosphorylated substrate remains uncleaved. […] Upon excitation of Coumarin at 400 nm, the FRET signal is measured as a ratio between the Coumarin donor emission at 445–460 nm and the fluorescein acceptor emission at 520–535 nm(Lebakken et al. [2007]).
Initial ten-fold and two-fold dilutions of Kinase and ATP concentrations were used to choose the optimal Kinase and ATP concentration based on the % Phosphorylation.
The assay was carried out according to the kit instructions (384 well format). Briefly, 5X kinase buffer [250 mM HEPES (pH 7.5), 50 mM MgCl2, 5 mM EGTA, 0.05% BRIJ-35] was diluted to 1X using distilled water. The phosphor peptide positive control (Z’-LYTE® Tyr 4 phospho-peptide) and the non-phosphorylated negative control (Z’-LYTE® Tyr 4 peptide) were then diluted to 1:500 with 1× kinase buffer to 2 μM. […] Working development solution was then made by diluting 12 μL of the provided stock solution with 388 μL of the provided development buffer. Aliquots (20 μL) of each peptide mixture were then added to the wells of a Corning 3914 solid white microplate in replicates of 8. The development reaction was initiated by the addition of 10 μL of working development-solution to all the wells. Further, the plates were allowed to incubate at room temperature for 60 min. Reactions were then stopped by the addition of 10 μL of stop solution (Jia et al. [2008]).
Reactions were quantitated using a Tecan Robotic Microplate Reader. Reader control, blank subtraction, ratio metric calculations and finally graph plotting were carried out using Gen5™ Data Analysis Software.
The CDK2/Cyclin A assay was carried out as per the manufacturer’s instruction using suitable controls and standard.
The inhibitory assay was carried out using the stock of 10 mM in DMSO. Samples were further serially diluted to obtain concentrations of 100 μM. The concentrations were chosen based on the IC50 values obtained in the MTT assay. A total of 23 analogues were selected for the assay based on their antiproliferative activity. Further, selected compounds were screened and tested against the target CDK2/Cyclin A, and their % phosphorylation and % inhibition were recorded.

[4] = test system: normal epithelial kidney cells (Vero); experiment: MTT cytotoxicity assay on Vero; format: cell-based; conditions: 24 h, read-out: Inhibition of cell proliferation, IC50, Vero
Protocol: (§1) The monolayer cell culture was trypsinized and the cell count was adjusted to 5.0 × 10^5 cells/ml using respective media containing 10% FBS. To each well of the 96-well microtiter plate, 100 µL of the diluted cell suspension (50,000cells/well) was added. After 24 h, when a partial monolayer was formed, the supernatant was flicked off, the monolayer was then washed once again with the medium and 100 µL of different test concentrations of test drugs were added on to the partial monolayer in microtiter plates. The plates were then incubated at 37 °C for 24 h in 5% CO2 atmosphere. After incubation, the test solutions in the wells were discarded and 100 µL of MTT (5 mg/10 ml of MTT in PBS) was added to each well. The plates were then incubated for 4 h at 37 °C in 5% CO2 atmosphere. The supernatant was then removed and 100 µL of DMSO was added and the plates were gently shaken to solubilize the formed formazan. The absorbance was measured using a microtiter plate reader at a wavelength of 590 nm. The percentage growth inhibition was thus calculated using the following formula and the concentration of the test drug required to inhibit the cell growth by 50% (IC50) values is generated from the dose–response curves for each one of the cell lines (Meerloo et al. [2011]).
(§2) The test compounds were screened for their in vitro cytotoxicity by MTT assay against two cancer cell lines, namely MCF-7, HCT-116 and normal epithelial kidney cells (Vero). Doxorubicin was used as a reference standard.

[5] = test system: HCT 116; experiment: MTT cytotoxicity assay on HCT 116; format: cell-based, Human; conditions: 24 h, read-out: Inhibition of cell proliferation, IC50, HCT 116
Protocol: as §1, §2

[6] = test system: MCF-7; experiment: MTT cytotoxicity assay on MCF-7; format: cell-based; conditions: 24 h, read-out: Inhibition of cell proliferation, IC50, MCF-7
Protocol: as §1, §2

| Structure (SMILES) | IC50 [1] | IC50 [2] | % inhibition on CDK2/cyclin A [3] | IC50 [4] | IC50 [5] | IC50 [6] |
| --- | --- | --- | --- | --- | --- | --- |
| O=c1c(O)c(-c2ccc(O)c(O)c2)oc2cc(O)cc(O)c12 [Quercetin, reference compound] | 39 ± 0.58 µM | 31.42 ± 0.09 µM | – | – | – | – |
| COc1cc(OC)c(C2=CCN(C(C)C)CC2)c2c1C(=O)/C(=C/c1ccccc1Br)O2 [NISOA2] | 234 ± 8.45 µM | 381 ± 28.1 µM | 39.811% | > 200 µM | 125 µM | 103 µM |
| CCN1CC=C(c2c(OC)cc(OC)c3c2O/C(=C\c2ccccc2Br)C3=O)CC1 [NEA3] | 67.1 ± 3.2 µM | 85.5 ± 6.87 µM | 35.559% | – | 33 µM | 28.1 µM |
| COc1ccc(/C=C2\Oc3c(c(OC)cc(OC)c3C3=CCN(C)CC3)C2=O)cc1 [NMA5] | 87 ± 0.18 µM | 98.2 ± 1.99 µM | 25.098% | > 200 µM | 139 µM | 155 µM |
| O=C1O[C@H]([C@@H](O)CO)C(O)=C1O [Ascorbic acid, reference compound] | 24.1 ± 1.23 µM | 18.5 ± 1.38 µM | – | – | – | – |
| CCCN1CC=C(c2c(OC)cc(OC)c3c2O/C(=C\c2ccc4ccccc4c2)C3=O)CC1 [NPA1] | 101 ± 2.81 µM | 133 ± 19.1 µM | 16.089% | 166 µM | 94.3 µM | 75 µM |
| CCN1CC=C(c2c(OC)cc(OC)c3c2O/C(=C\c2ccc4ccccc4c2)C3=O)CC1 [NEA1] | 120.9 ± 1.08 µM | 141 ± 13.9 µM | 32.676% | – | 68.6 µM | 57.9 µM |
| COc1ccc(/C=C2\Oc3c(c(OC)cc(OC)c3C3=CCN(C(C)C)CC3)C2=O)cc1 [NISOA5] | 109 ± 9.23 µM | 129 ± 6.78 µM | 39.054% | 167 µM | 55.4 µM | 39.6 µM |
| CCCN1CC=C(c2c(OC)cc(OC)c3c2O/C(=C\c2ccc(Cl)cc2)C3=O)CC1 [NPA4] | 134 ± 3.71 µM | 162.34 ± 0.06 µM | 14.753% | 102 µM | 44 µM | 42.1 µM |
| CCCN1CC=C(c2c(OC)cc(OC)c3c2O/C(=C\c2ccccc2Br)C3=O)CC1 [NPA3] | 123 ± 4.55 µM | 159 ± 13.9 µM | 17.045% | – | 67.9 µM | 53.9 µM |
| COc1cc(OC)c(C2=CCN(C(C)C)CC2)c2c1C(=O)/C(=C/c1ccccc1C)O2 [NISOA3] | 187 ± 8.03 µM | 284 ± 12.3 µM | 43.654% | > 200 µM | 89.5 µM | 70.4 µM |
| COc1cc(OC)c(C2=CCN(C)CC2)c2c1C(=O)/C(=C/c1ccc(N(C)C)cc1)O2 [NMA4] | 137 ± 6.23 µM | 154 ± 12.7 µM | 29.543% | > 200 µM | 89.5 µM | 63.8 µM |
| CCN1CC=C(c2c(OC)cc(OC)c3c2O/C(=C\c2ccc(Br)cc2)C3=O)CC1 [NEA4] | 71.67 ± 0.34 µM | 94.7 ± 4.9 µM | 27.236% | 188 µM | 93.6 µM | 82.7 µM |
| CCN1CC=C(c2c(OC)cc(OC)c3c2O/C(=C\c2ccccc2OC)C3=O)CC1 [NEA2] | 179 ± 6 µM | 220 ± 2.77 µM | 28.008% | – | 56.7 µM | 49.1 µM |
| CCCN1CC=C(c2c(OC)cc(OC)c3c2O/C(=C\c2ccc(OC)c(OC)c2)C3=O)CC1 [NPA5] | 76.1 ± 1.75 µM | 89.7 ± 9.65 µM | 12.547% | 99.9 µM | 74.3 µM | 68.5 µM |
| COc1cc(OC)c(C2=CCN(C(C)C)CC2)c2c1C(=O)/C(=C/c1ccc3ccccc3c1)O2 [NISOA1] | 112 ± 5.45 µM | 128 ± 17.9 µM | 38.987% | 172 µM | 63.2 µM | 46.8 µM |
| COc1cc(OC)c(C2=CCN(C)CC2)c2c1C(=O)/C(=C/c1ccccc1)O2 [NMA1] | 131 ± 1.74 µM | 151 ± 3.54 µM | 27.654% | 187 µM | 86.9 µM | 67.8 µM |
| CCN1CC=C(c2c(OC)cc(OC)c3c2O/C(=C\c2ccc(OC)c(OC)c2)C3=O)CC1 [NEA5] | > 1000 µM | 339 ± 9.65 µM | 26.007% | 177 µM | 175 µM | 135 µM |
| CCN1CC=C(c2c(OC)cc(OC)c3c2O/C(=C\c2ccc(Cl)cc2)C3=O)CC1 [NEA6] | 198.18 ± 0.08 µM | 223 ± 4.87 µM | 25.879% | 192 µM | 124 µM | 95.4 µM |
| COc1ccc(/C=C2\Oc3c(c(OC)cc(OC)c3C3=CCN(C)CC3)C2=O)cc1OC [NMA6] | 200 ± 4.43 µM | 258 ± 8.83 µM | 26.113% | > 200 µM | 123 µM | 98.5 µM |
| CCCN1CC=C(c2c(OC)cc(OC)c3c2O/C(=C\c2ccc(N(C)C)cc2)C3=O)CC1 [NPA2] | 99.3 ± 1.14 µM | 119 ± 12.9 µM | 13.664% | 172 µM | 87.3 µM | 46.9 µM |
| COc1cc(OC)c(C2=CCN(C)CC2)c2c1C(=O)/C(=C/c1ccccc1C)O2 [NMA3] | 89.8 ± 1.48 µM | 103 ± 7.78 µM | 24.987% | 188 µM | 89 µM | 62.7 µM |
| COc1cc(OC)c(C2=CCN(C(C)C)CC2)c2c1C(=O)/C(=C/c1ccc(Cl)cc1)O2 [NISOA6] | 146 ± 14.8 µM | 183 ± 11.9 µM | 36.546% | 179 µM | 41.8 µM | 43.9 µM |
